Assay [1] has as its target T1, hTERT (Homo sapiens, UniProt O14746). The assay can be described thus: RT-TRAP with recombinant telomerase ([…]). It is filed as biochemical. Further details: gene TERT.
The target of assay [2] is T1, hTERT. In words: RT-TRAP and direct telomerase assay with reconstituted purified hTERT + hTR; preincubation with hTERT vs hTR; dilution (reversibility) test. It counts as biochemical. Further details: gene TERT; MBP-hTERT, purified from P. pastoris.

Broadly, the IC50 is the midpoint of a concentration-inhibition curve.

T1 sequence (O14746 whole entry): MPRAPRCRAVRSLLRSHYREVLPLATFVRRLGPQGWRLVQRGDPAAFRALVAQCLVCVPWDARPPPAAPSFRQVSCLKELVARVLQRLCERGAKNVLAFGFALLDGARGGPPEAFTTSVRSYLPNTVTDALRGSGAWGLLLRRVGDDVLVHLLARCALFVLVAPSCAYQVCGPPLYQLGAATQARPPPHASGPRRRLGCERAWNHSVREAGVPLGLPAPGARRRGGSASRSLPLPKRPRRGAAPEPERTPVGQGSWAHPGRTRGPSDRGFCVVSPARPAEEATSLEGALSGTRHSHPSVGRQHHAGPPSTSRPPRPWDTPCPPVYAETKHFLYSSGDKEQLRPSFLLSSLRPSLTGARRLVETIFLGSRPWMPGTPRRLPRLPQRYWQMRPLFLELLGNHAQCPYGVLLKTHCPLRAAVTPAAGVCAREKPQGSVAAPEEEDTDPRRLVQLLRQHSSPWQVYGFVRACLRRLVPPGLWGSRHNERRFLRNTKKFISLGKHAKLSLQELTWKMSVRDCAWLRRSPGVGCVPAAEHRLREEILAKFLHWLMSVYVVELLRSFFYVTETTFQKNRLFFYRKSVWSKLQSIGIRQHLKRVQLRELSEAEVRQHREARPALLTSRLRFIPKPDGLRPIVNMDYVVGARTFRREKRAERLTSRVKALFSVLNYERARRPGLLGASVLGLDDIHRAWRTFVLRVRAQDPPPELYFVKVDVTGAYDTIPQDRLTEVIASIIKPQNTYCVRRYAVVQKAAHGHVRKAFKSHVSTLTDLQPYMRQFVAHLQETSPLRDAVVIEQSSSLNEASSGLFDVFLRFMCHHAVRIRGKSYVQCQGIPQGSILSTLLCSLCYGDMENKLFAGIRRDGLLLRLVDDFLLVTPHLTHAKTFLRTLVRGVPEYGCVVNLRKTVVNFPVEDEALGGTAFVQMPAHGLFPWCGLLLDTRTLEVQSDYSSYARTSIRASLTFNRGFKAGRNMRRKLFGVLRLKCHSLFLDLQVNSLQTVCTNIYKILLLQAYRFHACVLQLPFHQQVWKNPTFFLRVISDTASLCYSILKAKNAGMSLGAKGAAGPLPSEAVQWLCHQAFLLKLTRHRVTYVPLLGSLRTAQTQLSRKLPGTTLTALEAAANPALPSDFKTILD

Take `C/C(=C\C(=O)Nc1ccccc1C(=O)O)c1ccc2ccccc2c1` [BIBR1532]: the IC50 in assay [1] was ~80 nM.

For `NC1CC(N)C(O[C@H]2O[C@H](CNC(=O)[C@@H](N)CCCCNCc3ccc4nc5ccc6nc7ccccc7cc6c5cc4c3)[C@@H](O)C[C@H]2N)C(O)C1O[C@H]1O[C@H](CO)[C@@H](O)[C@H](N)[C@H]1O` (some centres unmarked) [TAI1], the IC50 in assay [2] came to 500 ± 200 nM.

(Values after article PMC4551907, “Identification of human telomerase assembly inhibitors enabled by a novel method to produce hTERT” (Nucleic Acids Research, 2015).)
